From US9334272B2, “Derivatives of purinic and pyrimidinic antiviral agents and use thereof as potent anticancer agents” (Ramot at Tel-Aviv University Ltd., priority 2007, dated 2016)

How the values were obtained:
[1] = system: U-251 cells; assay: Apoptosis/cell death by annexin V-FITC and propidium iodide FACS, U-251 cells; assay type: cell-based; conditions: Homo sapiens; U-251 glioblastoma cells, 50 μM, 24 hours (untreated 9%)
Procedure: Cells were seeded in six-well plates (10^5 cells/well) for 24 hours and were then treated as specified, trypsinized, washed with PBS, double-stained with annexin V-FITC (fluorescein isothiocyanate) and propidium iodide, according to the manufacturer's instructions and subjected to flow cytometry analysis (FACScalibur cytometer, Becton Dickinson).

[2] = system: U-251 cells; assay: Hoechst viability assay, U-251 glioma cells; assay type: cell-based, human; conditions: 72 hours, Hoechst
Procedure: (§1) Cells (in quadruplicate) at the specified density were suspended in 200 μL medium supplemented with 10% FCS seeded in 96-well plates for 24 hours, then exposed to the drugs for 72 hours. The viability of the cells was determined by Hoechst fluorescent assay as described by Nudelman et al., 2005. Leukemic cell viability after 72 hours of treatment was determined by an MTT (3-(4,5-dimethylthiazol-2-yl)-2,5-diphenyltetrazolium bromide) assay as described by Levovich et al., 2007.
(§2) IC50 values were determined by linear regression of the percentage of survival following drug titration.

[3] = system: U-251 cells; assay: Cell cycle analysis (propidium iodide flow cytometry), U-251 cells; assay type: cell-based, human; conditions: 24 hours
Procedure: Cells (4×10^5) were seeded in 35 mm culture dishes and after 24 hours were starved in medium without serum for an additional 24 hours, and then treated with the drug for an additional 24 hours. The cells were then trypsinized to a single cell suspension in PBS, washed, and resuspended in PBS at a concentration of 10^6 cells/mL. The cells were fixed with 70% ethanol for 30 minutes at 4° C., centrifuged and resuspended in 1 ml PBS containing 0.1% Tween 20 and 0.05% bovine serum albumin (BSA). RNase free of DNase was added, and the cell suspension (10^6 cells) was incubated at […] for 30 minutes. The cell suspension was then chilled on ice to a temperature in the range of 2 to 8° C. Propidium iodide (50 μg/mL) was added to the cell suspension, which was than kept in the dark. Red fluorescence (>630 nm) was analyzed on the flow cytometer.

[4] = system: 22RV1 cells; assay: Hoechst viability assay, 22RV1 prostate carcinoma cells; assay type: cell-based, human; conditions: 72 hours, Hoechst
Procedure: as §1, §2

[5] = system: acetylated histone H4; assay: Histone H4 acetylation Western blot, U-251 cells; assay type: cell-based, human; conditions: 2-4 hours of treatment
Procedure: For the determination of in vitro histone acetylation, 2.5-3×10^6 cells, seeded in 100 mm culture dishes, were supplemented with RPMI medium containing 10% heat inactivated FCS and were treated with the drugs the following day. At the specified times post-treatment, the cells were removed with a rubber policeman, centrifuged, washed, lysed with lysis buffer (PBS, Nonidet® NP-40 1%, sodium deoxycholate 0.5%, sodium dodecyl sulfate (SDS) 0.1%, 1 mM phenylmethylsulfonyl fluoride (PMSF), 1 mM sodium orthovanadate, and 1 μM each of leupeptin and pepstatin) and centrifuged at 10,000 g for 10 minutes at 4° C. […] The extract was then lyophilized, and protein concentration was determined with a BCA kit (Pierce, USA). […] The fold increase of acetylated histones was determined by the ratio of band intensities of treated and untreated cells or mice, normalized to loading control (total histone H3).
Cell lysates or acid extracted histones were solubilized in a concentrated (×4) loading buffer (62.5 mM Tris-HCl, pH 6.8, 1% SDS, 10% glycerol v/v, 1% dithiothreitol (DTT) and 0.1 mg/ml bromophenol blue). […] The membrane was exposed for 5 minutes to Chemiluminescence BioMax light film (Kodak, USA) and the intensity of the bands was measured with a VersaDoc instrument with a Quantityl program (Bio-Rad, USA). […]

[6] = system: U-251 cells; assay: Reactive oxygen species by DCF-DA FACS, U-251 cells; assay type: cell-based, human; conditions: 2 hour treatment
Procedure: ROS levels were determined by FACS analysis of U-251 cells treated with dichlorodihydrofluorescein diacetate (DCF-DA), which becomes fluorescent when oxidized.

[7] = system: U-251 cells; assay: Mitochondrial membrane potential (JC-1 staining), U-251 cells; assay type: cell-based, human; conditions: 60 μM, 24 hour treatment
[8] = system: herpes virus; conditions: Brigden & Whiteman, 1983; cited from earlier work
[9] = system: kinases which phosphorylate acyclovir; assay: Acyclovir phosphorylation (viral thymidine kinase activity) in 4T1 cell extracts; assay type: cell-based, murine; conditions: 4T1 cells, 24 hours, 40 μM
Procedure: The mammalian thymidine kinase (TK) has a narrow specificity and acts only on thymidine. […] The lysates obtained were kept at −70 ° C. until analyzed either spectroscopically or by RT-PCR. […] The ADP is converted to ATP by pyruvate kinase when it hydrolyzes phosphoenolpyruvate (PEP) to pyruvate. Lactate dehydrogenase then converts pyruvate to lactate and NADH to NAD^+. The decrease in fluorescence emitted by NADH (excitation/emission of 320/460 nm) during 10 cycles, each lasting 1 minute, were monitored using a FluoStar fluorometer. The reaction velocity was determined by the slope of the fluorescence vs. time.

[10] = target: T1, proteasome (Homo sapiens, UniProt P28074); assay: Proteasome activity assay, U-251 cells; assay type: cell-based; conditions: 4 or 24 hours, alone or in combination
T1 construct: proteasome activity in U-251 cells treated for 4 or 24 hours; endogenous in cells; host or cells: U-251 cells (lysates of treated cells)
T1 sequence (P28074 60-263): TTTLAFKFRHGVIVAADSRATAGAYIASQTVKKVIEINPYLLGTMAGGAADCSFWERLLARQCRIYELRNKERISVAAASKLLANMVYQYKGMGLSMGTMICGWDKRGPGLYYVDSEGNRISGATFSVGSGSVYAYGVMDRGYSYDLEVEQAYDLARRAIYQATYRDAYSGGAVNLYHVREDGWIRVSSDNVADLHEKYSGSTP
Procedure: The peptidase or chymotrypsin-like activity of the proteasome was assayed using N-succinyl-Leu-Leu-Val-Tyr-7-amido-4-methylcoumarin. The lysates (100 μL) were incubated with 13 (M of the substrate in 100 mM Tris, pH 7.5, for 1 hour with shaking at room temperature. The reaction was stopped by addition of ice-cold ethanol, and the samples were centrifuged for 5 minutes at 2500 g. The supernatants were collected and the fluorescence was measured with excitation/emission filters of 390/460 nm using the FluoStar fluorimeter. The protein concentration was determined using a BCATM kit (Pierce) and the proteasome activity was derived from the ratio of fluorescence at 460 nm/(g of protein. The percentage of proteasome activity was calculated relative to untreated cells.

Nc1nc2c(ncn2COCCO)c(=O)[nH]1 [acyclovir, reference compound]
mortality at 50 µM [1]: 11% | IC50 [2]: could not be reached | phase of cell-cycle arrest ([3]; 1 mM): S phase | Percentage of cells in G0-G1 stage ([3]; 1000 μM): 14.1% | Percentage of cells in G2-M stage ([3]; 1000 μM): 12.2% | Percentage of cells in S stage ([3]; 1000 μM): 73.6% | IC50 [4]: could not be reached | acetylation of histone H4 [5]: did not | level of oxidation in cells (ROS) [6]: little if any effect | mitochondrial membrane potential [7]: no apparent effect | inhibition of herpes virus replication at concentrations lower than those inhibiting mammalian cellular functions [8]: 300-3000 fold | rate of acyclovir phosphorylation (kinase activity) [9]: no effect on the kinase activity | inhibitory effect on proteasome activity [10]: only a marginal inhibitory effect
